Experimental data taken from patent US11034702B2, “Thienoisoquinolines and their derivatives for the treatment of cancer” (VALORBEC, SOCIÉTÉ EN COMMANDITE, priority 2016, dated 2021).
“Also recorded” adds a separate entry of the source.

Key:
[1] = tested on: MCF-7 (mammary gland carcinoma) cells; assay: IC50 (viability) in MCF-7 cells; type: cell-based; details: Homo sapiens, MCF7
Description: 19 variants with different structural modifications have been made. […] In particular, it is shown that C75 causes death in multiple cancer cells with IC50 values in the 100 nM range, including breast cancers (MCF7, BT549), lung cancer (A549), colorectal cancer (HCT116) in addition to HeLa cells (cervical cancer).

HeLa cells [2] = assay: Mitotic arrest (percentage of cells in mitosis) in HeLa cells; type: cell-based, human
Description: (§1) There were more rounded mitotic cells after C75 treatment in comparison to the control. FIG. 1B) is a line graph showing the percentage of HeLa and HFF1 cells in mitosis after treatment with various concentrations of C75 for 8 hours. The bars indicate standard deviation. FIG. 1C) is a series of images showing cells that were fixed and co-stained for tubulin (microtubules) and DAPI (DNA). Treatment of HeLa cells with 300 nM C75 caused the mitotic spindles to be disorganized, while they were not affected in HFF1 cells. […] The scale bar for the cells is 10 μm. FIG. 1D) is a cartoon schematic showing the key features of a metaphase cell.
(§2) FIG. 2A) is a line graph showing the percentage of HCT116 (p53−/−) cells, A549 cells, HeLa cells and H1299 cells in mitosis after treatment with various concentrations of C75 for one population doubling time. All of the cell lines show an increase in the proportion of mitotic cells after treatment with 200 nM C75. The bars indicate standard deviation. […] While the mitotic spindles were not dramatically altered by C75 in HFF1 cells, they were monopolar (as shown) or fragmented in the other cell types. […] The mitotic spindles were more strongly fragmented after C75 treatment in these cells vs. the cells in FIG. 2B). […] While mitotic spindles recovered bipolarity after removing nocodazole, they remained multipolar after removing C75. FIG. 2F) is a series of time-lapse images of a live HeLa cell expressing GFP:tubulin after treatment with C75 as shown in 2D) and 2E). The scale bar for all cells is 10 μm. FIG. 2G) is a schematic showing the putative target for C75. Healthy cells have two centrosomes that separate and form a bipolar spindle, while cancer cells have aberrant centrosomes that cluster to form ‘pseudo’ bipolar spindles, and C75 may target this process and their integrity.
FIG. 3A) is a line graph showing the percentage of mitotic HeLa or HFF1 cells treated with a range of paclitaxel (Taxol™; tubulin-targeting drug) concentrations+/−C75 as indicated. The bars indicate standard deviation. […]

HeLa cells [3] = assay: Mitotic spindle / centrosome phenotype in HeLa cells (tubulin and DAPI staining, live imaging); type: cell-based, human
Description: as §1, §2
FIG. 3A) is a line graph showing the percentage of mitotic HeLa or HFF1 cells treated with a range of paclitaxel (Taxol™; tubulin-targeting drug) concentrations+/−C75 as indicated. The bars indicate standard deviation. FIG. 3B) is a series of bar graphs showing the proportion of HCT116 cells that have monopolar spindles, bipolar spindles with aligned chromosomes, bipolar spindles with misaligned chromosomes and multipolar/fragmented spindles after treatments as shown. Treatments include DMSO (control), varying concentrations of paclitaxel and/or varying concentrations of C75 after 7 hours. While treatment of HCT116 cells with 2.5 nM paclitaxel caused a threshold of mitotic spindle phenotypes, adding increasing concentrations of C75 in combination with 2.5 nM paclitaxel caused the phenotypes to progressively worsen. FIG. 3C) is bar graph showing the average distance between centrosome fragments in HCT116 cells after treatments as shown. While centrosome fragments moved closer together with increased concentrations of paclitaxel, they moved further apart with increased concentrations of C75. […] FIG. 3E) is a line graph showing the percentage of mitotic HeLa or HFF1 cells treated with a range of nocodazole concentrations+/−C75 as indicated. The bars indicate standard deviation. FIG. 3F) is a series of images showing fixed HeLa cells after treatment with C75+/− nocodazole co-stained for tubulin, γ-tubulin and DNA (DAPI). […] Adding nocodazole to cells treated with 300 nM C75 caused mitotic spindle phenotypes to worsen and appear more similar to those after treatment with 600 nM C75. The scale bar for all cells is 10 μm. FIG. 3G) is a bar graph showing the percentage of phenotypes observed for metaphase HeLa cells treated with nocodazole or C75, or both for 20 minutes (n>15 per treatment).
Spindle fragmentation only occurred after extensive microtubule depolymerization in colchicine-treated cells, while the spindle poles fragmented prior to changes in microtubules after C75 treatment. The scale bar for all cells is 10 μm.
C75 was further tested and found to cause mitotic arrest in HeLa cells. […]

HFF1 cells = assay: Mitotic spindle phenotype in HFF1 cells; type: cell-based
Description: as §1
FIG. 2A) is a line graph showing the percentage of HCT116 (p53−/−) cells, A549 cells, HeLa cells and H1299 cells in mitosis after treatment with various concentrations of C75 for one population doubling time. All of the cell lines show an increase in the proportion of mitotic cells after treatment with 200 nM C75. The bars indicate standard deviation. […]
C75 was also tested for efficacy in different cancer cell lines. […] To further assess the role of C75 in affecting centrosomes, HeLa cells were treated with C75 for a short period of time (5 minutes), then C75 was removed and the cells were analyzed for spindle phenotypes (schematic in FIG. 2D). […]

## COc1ccc(S(=O)(=O)N2Cc3ccccc3-c3sc(Br)cc32)cc1 [Compound C75]
[1]
  IC50: 101 nM
HeLa cells [2]; HeLa vs. HFF1 cells, percentage of mitotic cells, tubulin drug +/- C75
  effect of C75 on selectivity of paclitaxel and nocodazole: enhances the selectivity
HeLa cells [2]; HeLa, within one population doubling time
  concentration causing mitotic arrest: 100 to 200 nM
HeLa cells [2]; nanomolar concentrations, 8 hours
  selectivity of mitotic arrest, HeLa vs. HFF1: selectively causes mitotic arrest
HeLa cells [3]; HeLa, 300 nM
  mitotic spindle phenotype: spindle organization was perturbed; also recorded: most of the spindles were severely fragmented
HeLa cells [3]; HeLa, 750 nM
  mitotic spindle phenotype: Centrosomes were fragmented or declustered and microtubules were completely absent; also recorded: complete fragmentation of the mitotic spindles
HeLa cells [3]; HeLa, 8 hours, 30 nM colchicine or 300 nM C75
  spindle phenotype at lower concentrations: disrupted spindle poles
HeLa cells [3]; HeLa, 8 hours, 40 or 50 nM colchicine, 400 or 500 nM C75
  spindle phenotype at higher concentrations: spindle fragmentation prior to extensive loss of microtubules
HeLa cells [3]; live imaging, HeLa GFP:tubulin
  time after exposure until centrosomes fragmented or declustered and microtubules collapsed: 4 to 6 min
HeLa cells [3]; live imaging, HeLa, after wash-out, spindles tri- or multipolar
  time until microtubule polymers grew again: 20 to 30 min
HeLa cells [3]; metaphase HeLa, 5 minutes treatment, washed out, imaged after 40 minutes
  spindle phenotype after drug wash-out: tri- or multipolar spindles formed
HeLa cells [3]; metaphase HeLa, nocodazole or C75 or both, 20 minutes
  spindle phenotype, drugs alone vs. together: disorganized and/or fragmented mitotic spindles
HFF1 cells; HFF1, 300 nM
  mitotic spindle phenotype: not affected; also recorded: majority of HFF1 cells had bipolar spindles
HFF1 cells; HFF1, 750 nM
  mitotic spindle phenotype: disorganized
